Measured values: paper PMC9841431 (Nucleic Acids Research, 2022)

Columns and labels:
[1] = system: M. tuberculosis mrx2 KO mutant (Δmrx2); assay type: cell-based; conditions: times higher
[2] = target: Mrx2 mutants (Mycobacterium tuberculosis, UniProt O53193, G95S); assay type: biochemical, M. tuberculosis

SMILES	MIC of Δmrx2 relative to M. tuberculosis H37Rv [1] [times]	Activity of Mrx2G95S against the compound [2]
O=[N+]([O-])c1cc2cc3ccc4oc([N+](=O)[O-])cc4c3cc2o1 [nNF-C2, 2,8-Dinitronaphtho[2,1-b:7,6-b']difuran]	8	maintained its ability to metabolize
COC(=O)c1ccc2c(ccc3oc([N+](=O)[O-])cc32)c1 [nNF-C4, Methyl 2-nitronaphtho[2,1-b]furan-7-carboxylate]	16	–
